Results from patent US20240181081A1, “Compositions and Methods for Treatment of Myotonic Dystrophy Type 1 with CRISPR/SACAS9” (Vertex Pharmaceuticals Incorporated, priority 2021, published 2024).

Columns and labels:
[1] = tested on: CTG repeat expansion in the 3′ UTR of human DMPK gene; test: DOUBLE-cut screening: CTG repeat excision by loss-of-signal ddPCR in primary DM1 patient myoblasts; format: cell-based; settings: sgRNA pair RNP, mean of upstream and downstream ddPCR assays; for % of CTG repeat excision efficiency by ddPCR (DNA-PKi): 3 μM Compound 6 for 48 hrs; for % of CTG repeat excision efficiency by ddPCR (Vehicle): DMSO 48 hrs
Method: (§1) RNPs were assembled with recombinant SaCas9 protein (Aldevron) and chemically modified sgRNAs (Synthego) at a ratio of 1:3 (protein:sgRNA). For SINGLE-cut screening, RNP complexes were assembled with 30 pmol of SaCas9 and 90 pmol of sgRNA in P5 Primary Cell Nucleofector Solution (Lonza). After incubation at room temperature for 20 minutes, 10 μL of RNP complex was mixed with two hundred thousand primary myoblasts resuspended in 10 μL of P5 Nucleofector Solution. For DOUBLE-cut screening, RNP complexes were first assembled for individual sgRNAs with 20 pmol of SaCas9 protein and 60 pmol of sgRNAs in 5 μL of P5 Nucleofector Solution. After incubation at room temperature for 20 minutes, the two RNP complexes (one for upstream sgRNA and one for downstream sgRNA) were mixed at 1:1 ratio and then further mixed with two hundred thousand primary myoblasts resuspended in 10 μL of P5 Nucleofector Solution.
(§2) The Nucleofector 96-well Shuttle System (Lonza) was used to deliver the SaCa9/sgRNA RNPs into primary DM1 patient myoblasts using the nucleofection program CM138. Following nucleofection, myoblasts from each well of nucleofection shuttle were split into six wells of the 96-well cell culture plate (Greiner, 655090) coated with matrigel. The first three wells were treated with DMSO for 48 hrs before changing to fresh myoblast growth medium, and the other three wells were treated with 3 μM of DNA-PKi Compound 6 for 48 hrs before changing to fresh myoblast growth medium. 72 hrs post nucleofection, two wells of DMSO-treated myoblasts and two wells of DNA-PKi-treated myoblasts from each nucleofection were harvested for genomic DNA extraction using the Kingfisher Flex purification system (Thermal Fisher), whereas one well of DMSO-treated myoblasts and one well of DNA-PKi-treated myoblasts were stained for RNA foci by FISH staining.
The primers and probes of ddPCR were designed using the online primer design software Primer3Plus (http://www.bioinformatics.nl/cgi-bin/primer3plus/primer3plus.cgi). The two Target primers/probe sets were used to detect CTG repeat excision, and the Reference primers/probe set was used to amplify a region located in Exon 1 of human DMPK gene and it served as a reference control for the Target sets. The 24 μL of ddPCR reaction consisted of 12 μL of Supermix for Probes (no dUTP) (Bio-Rad Laboratories), 1 μL of Reference primers mix (21.6 μM), 1 μL of Reference probe (6 μM), 1 μL of Target primers mix (21.6 μM), 1 μL of Target probe (6 μM), and 8 μL of sample genomic DNA. Droplets were generated using probe oil with the QX200 Droplet Generator (Bio-Rad Laboratories). Droplets were transferred to a 96-well PCR plate, sealed and cycled in a C1000 deep well Thermocycler (Bio-Rad Laboratories) under the following cycling protocol: 1 cycle at 95° C. for 10 min; 40 cycles of 94° C. for 30 sec, and 58° C. for 1 min; 1 cycle at 98° C. for 10 min (for enzyme inactivation). The cycled plate was then transferred and read in the FAM and HEX channels using the Bio-Rad QX200 Droplet Reader (Bio-Rad Laboratories). ddPCR analysis was performed with the Bio-Rad QuantaSoft Pro Software.
Next, DOUBLE-cut screening was performed to assess the efficiency of paired sgRNAs-induced CTG repeat excision and RNA foci reduction. 90 SaCas9 sgRNA pairs formed by one upstream sgRNA and one downstream sgRNA were assembled with recombinant SaCas9 protein into RNP complex and nucleofected into primary DM1 patient myoblasts. Nucleofected myoblasts were treated with either DMSO (vehicle) or 3 μM of Compound 6 (DNA-PKi) for 48 hrs. 72 hrs post nucleofection, myoblasts were subjected to either genomic DNA isolation or RNA foci staining.
One upstream and one downstream loss-of-signal droplet digital PCR (ddPCR) assays were used to determine the efficiency of CTG repeat excision. ddPCR signals would be abolished upon excision of the CTG repeat expansion in these loss-of-signal ddPCR assays. […]

[2] = tested on: CUG RNA foci in primary DM1 patient myoblasts; test: DOUBLE-cut screening: FISH staining of RNA foci in primary DM1 patient myoblasts; format: cell-based, human; settings: sgRNA pair RNP, 72 hrs post nucleofection; for % of CUG foci free nuclei (DNA-PKi): 3 μM Compound 6 for 48 hrs; for % of CUG foci free nuclei (Vehicle): DMSO 48 hrs
Method: as §1, §2
Primary myoblasts were fixed for 15 min with 4% paraformaldehyde (PFA) and washed five times with 1×PBS for 10 min each at room temperature. Before staining, cells were permeabilized with 0.5% triton X-100 in 1×PBS for 5 min at room temperature, and then washed with 30% formamide and 2× saline-sodium citrate (SSC) mixture for 10 min at room temperature. Cells were then stained with 1 ng/μL of Cy3-PNA(CAG) 5 probe (PNA Bio, F5001) diluted in 30% formamide, 2×SSC, 2 μg/mL BSA, 66 μg/mL yeast tRNA, and 2 mM vanadyl complex for 15 min at 80° C. Following probe staining, cells were then washed in 30% formamide and 2×SSC mixture for 30 min at 42° C., then washed in 30% formamide and 2×SSC mixture for 30 min at 37° C., and then washed in 1×SSC solution for 10 min at room temperature, and finally washed in 1×PBS for 10 min at room temperature. Cells were next stained with anti-MBNL1 antibody (Santa Cruz, 3A4) diluted in 1% bovine serum albumin (BSA) for overnight at 4° C., and washed twice with 1×PBS for 10 min each at room temperature. Cells were then incubated with the secondary antibody goat […] Alexa 647 (Thermo Fisher, A32728) diluted in 1% BSA for 1 hr at room temperature, and washed twice with 1×PBS for 10 min each at room temperature. Next, cells were stained with Hoechst solution (Thermo Fisher, H3569) at 0.1 mg/ml for 5 min, and washed once with 1×PBS for 5 min. PBS was aspirated and fresh 100 μl of fresh PBS was added to each well. High-throughput acquisition of images was completed with the ImageXpress Micro Confocal High-Content Imaging System (Molecular Devices). RNA foci quantifications were accomplished with a customized analysis module of the MetaXpress program (Molecular Devices).
Next, DOUBLE-cut screening was performed to assess the efficiency of paired sgRNAs-induced CTG repeat excision and RNA foci reduction. 90 SaCas9 sgRNA pairs formed by one upstream sgRNA and one downstream sgRNA were assembled with recombinant SaCas9 protein into RNP complex and nucleofected into primary DM1 patient myoblasts. […]

## SaU2 + SaD17: SaCas9 sgRNA pair, SEQ ID NOs: 2 and 25 (guide 1 ACTCAGTCTTCCAACGGGGCCC; guide 2 TTTATTCGCGAGGGTCGGGGGT; listed as DNA, chemistry not fully specified)
[1]
  % of CTG repeat excision efficiency by ddPCR (DNA-PKi): 52.34%
  % of CTG repeat excision efficiency by ddPCR (Vehicle): 31.11%
[2]
  % of CUG foci free nuclei (DNA-PKi): 78.68%
  % of CUG foci free nuclei (Vehicle): 55.20%

## SaU2 + SaD18: SaCas9 sgRNA pair, SEQ ID NOs: 2 and 26 (guide 1 ACTCAGTCTTCCAACGGGGCCC; guide 2 GGGCCTTTTATTCGCGAGGGTC; listed as DNA, chemistry not fully specified)
[1]
  % of CTG repeat excision efficiency by ddPCR (DNA-PKi): 48.16%
  % of CTG repeat excision efficiency by ddPCR (Vehicle): 19.28%
[2]
  % of CUG foci free nuclei (DNA-PKi): 69.93%
  % of CUG foci free nuclei (Vehicle): 32.87%

## SaU2 + SaD19: SaCas9 sgRNA pair, SEQ ID NOs: 2 and 27 (guide 1 ACTCAGTCTTCCAACGGGGCCC; guide 2 AGGACCCCCACCCCCGACCCTC; listed as DNA, chemistry not fully specified)
[1]
  % of CTG repeat excision efficiency by ddPCR (DNA-PKi): 56.62%
  % of CTG repeat excision efficiency by ddPCR (Vehicle): 49.08%
[2]
  % of CUG foci free nuclei (DNA-PKi): 80.94%
  % of CUG foci free nuclei (Vehicle): 62.27%

## SaU2 + SaD20: SaCas9 sgRNA pair, SEQ ID NOs: 2 and 28 (guide 1 ACTCAGTCTTCCAACGGGGCCC; guide 2 AGATGGAGGGCCTTTTATTCGC; listed as DNA, chemistry not fully specified)
[1]
  % of CTG repeat excision efficiency by ddPCR (DNA-PKi): 61.08%
  % of CTG repeat excision efficiency by ddPCR (Vehicle): 36.35%
[2]
  % of CUG foci free nuclei (DNA-PKi): 82.08%
  % of CUG foci free nuclei (Vehicle): 74.86%

## SaU3 + SaD2: SaCas9 sgRNA pair, SEQ ID NOs: 3 and 10 (guide 1 ACTCCGGGGCCCCGTTGGAAGA; guide 2 TCGGCCAGGCTGAGGCCCTGAC; listed as DNA, chemistry not fully specified)
[1]
  % of CTG repeat excision efficiency by ddPCR (DNA-PKi): 54.49%
  % of CTG repeat excision efficiency by ddPCR (Vehicle): 50.85%
[2]
  % of CUG foci free nuclei (DNA-PKi): 82.73%
  % of CUG foci free nuclei (Vehicle): 77.08%

## SaU3 + SaD3: SaCas9 sgRNA pair, SEQ ID NOs: 3 and 11 (guide 1 ACTCCGGGGCCCCGTTGGAAGA; guide 2 CAACGATAGGTGGGGGTGCGTG; listed as DNA, chemistry not fully specified)
[1]
  % of CTG repeat excision efficiency by ddPCR (DNA-PKi): 57.46%
  % of CTG repeat excision efficiency by ddPCR (Vehicle): 36.25%
[2]
  % of CUG foci free nuclei (DNA-PKi): 78.72%
  % of CUG foci free nuclei (Vehicle): 51.28%

## SaU3 + SaD4: SaCas9 sgRNA pair, SEQ ID NOs: 3 and 12 (guide 1 ACTCCGGGGCCCCGTTGGAAGA; guide 2 ACTTTGCGAACCAACGATAGGT; listed as DNA, chemistry not fully specified)
[1]
  % of CTG repeat excision efficiency by ddPCR (DNA-PKi): 64.28%
  % of CTG repeat excision efficiency by ddPCR (Vehicle): 47.22%
[2]
  % of CUG foci free nuclei (DNA-PKi): 87.42%
  % of CUG foci free nuclei (Vehicle): 83.67%

## SaU3 + SaD5: SaCas9 sgRNA pair SaU3 and SaD5; table prints SEQ ID NOS: 2 and 13 (guide 1 ACTCCGGGGCCCCGTTGGAAGA; guide 2 GGGTTTGGCAAAAGCAAATTTC; listed as DNA, chemistry not fully specified)
[1]
  % of CTG repeat excision efficiency by ddPCR (DNA-PKi): 60.74%
  % of CTG repeat excision efficiency by ddPCR (Vehicle): 43.61%
[2]
  % of CUG foci free nuclei (DNA-PKi): 84.63%
  % of CUG foci free nuclei (Vehicle): 73.56%

## SaU3 + SaD6: SaCas9 sgRNA pair, SEQ ID NOs: 3 and 14 (guide 1 ACTCCGGGGCCCCGTTGGAAGA; guide 2 CTTTTGCCAAACCCGCTTTTTC; listed as DNA, chemistry not fully specified)
[1]
  % of CTG repeat excision efficiency by ddPCR (DNA-PKi): 50.32%
  % of CTG repeat excision efficiency by ddPCR (Vehicle): 24.10%
[2]
  % of CUG foci free nuclei (DNA-PKi): 64.84%
  % of CUG foci free nuclei (Vehicle): 31.37%

## SaU3 + SaD7: SaCas9 sgRNA pair, SEQ ID NOs: 3 and 15 (guide 1 ACTCCGGGGCCCCGTTGGAAGA; guide 2 GGGGCGCGGGATCCCCGAAAAA; listed as DNA, chemistry not fully specified)
[1]
  % of CTG repeat excision efficiency by ddPCR (DNA-PKi): 58.50%
  % of CTG repeat excision efficiency by ddPCR (Vehicle): 35.98%
[2]
  % of CUG foci free nuclei (DNA-PKi): 76.54%
  % of CUG foci free nuclei (Vehicle): 49.49%

## SaU3 + SaD10: SaCas9 sgRNA pair, SEQ ID NOs: 3 and 18 (guide 1 ACTCCGGGGCCCCGTTGGAAGA; guide 2 TTGGGGGTCCTGTAGCCTGTCA; listed as DNA, chemistry not fully specified)
[1]
  % of CTG repeat excision efficiency by ddPCR (DNA-PKi): 69.50%
  % of CTG repeat excision efficiency by ddPCR (Vehicle): 44.56%
[2]
  % of CUG foci free nuclei (DNA-PKi): 86.88%
  % of CUG foci free nuclei (Vehicle): 75.19%

## SaU3 + SaD11: SaCas9 sgRNA pair, SEQ ID NOs: 3 and 19 (guide 1 ACTCCGGGGCCCCGTTGGAAGA; guide 2 CAAAACGTGGATTGGGGTTGTT; listed as DNA, chemistry not fully specified)
[1]
  % of CTG repeat excision efficiency by ddPCR (DNA-PKi): 58.33%
  % of CTG repeat excision efficiency by ddPCR (Vehicle): 32.84%
[2]
  % of CUG foci free nuclei (DNA-PKi): 73.87%
  % of CUG foci free nuclei (Vehicle): 50.28%

## SaU3 + SaD12: SaCas9 sgRNA pair, SEQ ID NOs: 3 and 20 (guide 1 ACTCCGGGGCCCCGTTGGAAGA; guide 2 TCAGTGCATCCAAAACGTGGAT; listed as DNA, chemistry not fully specified)
[1]
  % of CTG repeat excision efficiency by ddPCR (DNA-PKi): 59.96%
  % of CTG repeat excision efficiency by ddPCR (Vehicle): 38.05%
[2]
  % of CUG foci free nuclei (DNA-PKi): 83.21%
  % of CUG foci free nuclei (Vehicle): 74.46%
